Marks after values point to notes of the source that are not given here.

The record followed here is patent US11304926B2, “Application of transient receptor potential cation channel TRPV3 in developing drug for preventing or treating psoriasis” (CHINA PHARMACEUTICAL UNIVERSITY, priority 2019, dated 2022).

Experiment [1] has as its system mouse psoriasis model induced by 5% IMQ. The experiment can be described thus: PASI score of mouse psoriasis model induced by imiquimod under drug intervention. Format: in vivo. The settings on record: 0.1% dexamethasone s.c. 100 μL twice a day + imiquimod, n = 8, mean ± SD. From the text: (§1) 16 C57BL/6 mice, with half male and half female were purchased from the Experimental Animal Center of Nanjing Medical University, wherein weights of the mice ranged from 18 g to 20 g. Back hair of the mice was shaved off, and then the mice were randomly divided into 2 groups (8 mice in each group) according to male and female genders. Before experiment, the mice were placed in a quiet environment kept away from strong light for 3 days to adapt to the environment, a ratio of an illuminating time to a dark time was 1:1, a room temperature was controlled at 25° C., a humidity was 55%, and the mice could eat and drink freely. 62.5 mg of 5% (0.1 g:2 g) imiquimod ointment (Zhuhai United Laboratories Co., Ltd.) was continuously applied to back skins of the mice for 6 days to induce a psoriasis-like lesion, while the same dose of vaseline ointment was given to the control group.
(§2) The clinical symptom of the mouse psoriasis model was evaluated by a PASI scoring standard from three indicators of erythema, scale and infiltration thickening. The scores ranged from 0 point to 4 points, and a total score was obtained by adding scores of the three indicators. The PASI scoring standard was as follows: 0 point referred to no symptom; 1 point referred to a mild degree; 2 points referred to a moderate degree; 3 points referred to a severe degree; and 4 points referred to an extremely severe degree. The PASI evaluation was conducted daily before the IMQ ointment was applied.
C57BL/6 mice, with half male and half female were purchased from the Experimental Animal Center of Nanjing Medical University, wherein weights of the mice ranged from 18 g to 20 g. The C57BL/6 mice were randomly divided into 4 groups (8 mice in each group). Mouse psoriasis models were established as described in Embodiment 2 (1). […]
Back skins of the mice were photographed and recorded on the 1st, 3rd and 5th days after modeling.

Experiment [2] deals with back skins of C57BL/6 mice. The experiment can be described thus: PASI score of back skin of mice after continuous application of 5% imiquimod ointment (model induction). Format: in vivo, mouse. The conditions noted are these: 62.5 mg 5% imiquimod ointment on back skin, mean ± SD.
Source text: as §1, with “group. The back skins of the mice were photographed and recorded on the 1st, 3rd and 5th days of modeling and skin appearances on the 5th day of modeling were shown in FIG. 2A.” for “group.”
as §2, with “applied. It should be noted that measurement data was represented by mean±standard deviation (mean±SD), and was detected by One-Way ANOVA, wherein in the analysis results, ** represented that P<0.01, which was relative to the vaseline group.” for “applied.”

Regarding `C[C@@H]1C[C@H]2[C@@H]3CCC4=CC(=O)C=C[C@]4(C)[C@@]3(F)[C@@H](O)C[C@]2(C)[C@@]1(O)C(=O)CO` [Dexamethasone, dexamethasone, reference compound], the PASI score in experiment [1] (day 1) was 0.0 ± 0.0; in experiment [1] (day 2), 0.3 ± 0.5; in experiment [1] (day 3) it was 0.8 ± 0.5; in experiment [1] (day 4), 1.5 ± 1.0; in experiment [1] (day 5), 2.3 ± 0.9.

On to `CC(C)Cn1cnc2c(N)nc3ccccc3c21` [Imiquimod, imiquimod], for which the PASI score was 0.0 ± 0.0 in experiment [2] (day 1); 1.5 ± 0.8 in experiment [2] (day 2); 4.5 ± 2.2** in experiment [2] (day 3); 6.8 ± 1.7** in experiment [2] (day 4); 9.8 ± 1.3** in experiment [2] (day 5).
